{
  "source": "patent US5043336A",
  "about": "(priority 1990, dated 1991)",
  "key": {"[1]": {"test_system": "CCRF-CEM cell line (human leukemic cells)", "test": "CCRF-CEM Cytotoxicity Assay (growth inhibition of human leukemic cells, 72 h)", "assay_type": "cell-based", "details": "37° C.; for IC50: Homo sapiens, CCRF-CEM, 72 h, read-out: IC50 (concentration giving 50% growth inhibition)", "experimental": "The CEM cells were grown in RPMI 1640 media (MA Bioproducts) at 37° C. in humidified atmospheric conditions of 95% air and 5% carbon dioxide. The cells were grown in static suspension and maintained in log growth phase at a concentration of 3-7×10^5 cells/ml. The cells were dispersed in wells at a concentration of 4.8×10^4 /well. The drug was dissolved in dimethyl sulfoxide or water and was added at different dilutions to the cluster plates (wells). The cluster plates were incubated at 37° C. for 72 hours. After 72 hours the wells were read using a ZBI Coulter particle counter. Table 2 below gives the results of such testing of several compounds represented by Formula I above. In the table, Column 1 gives the name of the compound and Column 2 gives the IC50 (concentration giving 50% growth inhibition) in μg/ml."}, "pKa (66% DMF)": {"test": "pKa (66% DMF)", "assay_type": "physicochemical"}, "[2]": {"test": "trial test of the water solubility of the salt", "assay_type": "physicochemical", "details": "after adjusting pH to 3.6, before additional 0.5 ml of 2% sulfuric acid", "experimental": "All of the 4-desacetyl VLB C-3 N^2 -(hexahydro-2-methyl-7-oxo-1H-azepin-1-yl)carboxhydrazide prepared from Example 6 was dissolved in 50 ml of ethanol. The initial pH of 4.9 was adjusted to 3.6 with 2% sulfuric acid in ethanol. […] This material was evaporated to dryness in vacuo, which yielded 750 mg of the title compounds."}, "[3]": {"test_system": "Ridgeway osteogenic sarcoma", "details": "transplanted tumors in mice; cited from earlier work"}, "Gardner lymphosarcoma": {"test_system": "Gardner lymphosarcoma", "details": "transplanted tumors in mice; cited from earlier work"}, "P1534(J) leukemia": {"test_system": "P1534(J) leukemia", "details": "transplanted tumors in mice; cited from earlier work"}, "[4]": {"test_system": "experimental malignancies", "details": "in vivo; cited from earlier work"}, "[5]": {"details": "in humans; cited from earlier work"}, "[6]": {"test_system": "vincristine-resistant leukemias", "details": "in humans; cited from earlier work"}},
  "note": "Structures can show the parent of a compound that is named as a salt.",
  "data": [
    {"smiles": "CC[C@]1(O)C[C@@H]2CN(CCc3c([nH]c4ccccc34)[C@@](C(=O)OC)(c3cc4c(cc3OC)N(C)[C@H]3[C@@](O)(C(=O)NN5C(=O)CCC5C)[C@H](O)[C@]5(CC)C=CCN6CC[C@]43[C@@H]65)C2)C1", "note": "(single isomer, unassigned) [4-Desacetyl VLB C-3 N^2 -(2-methyl-5-oxo-1-pyrrolidinyl)carb] [4-Desacetyl VLB C-3 N^2-(2-methyl-5-oxo-1-pyrrolidinyl)carboxhydrazide(Isomer 2) sulfate salt]", "values": [
      {"measurement": "IC50 (concentration giving 50% growth inhibition)", "setting": "[1]; sulfate salt", "value": 0.09, "unit": "µg/mL"}
    ]},
    {"smiles": "CC[C@]1(O)C[C@@H]2CN(CCc3c([nH]c4ccccc34)[C@@](C(=O)OC)(c3cc4c(cc3OC)N(C)[C@H]3[C@@](O)(C(=O)NN5C(=O)CCC5C)[C@H](O)[C@]5(CC)C=CCN6CC[C@]43[C@@H]65)C2)C1", "note": "(single isomer, unassigned) [4-Desacetyl VLB C-3 N^2-(2-methyl-5-oxo-1-pyrrolidinyl)carboxhydrazide(Isomer 1) sulfate salt]", "values": [
      {"measurement": "IC50", "setting": "[1]", "value": 0.1, "unit": "µg/mL"}
    ]},
    {"smiles": "CC[C@]1(O)C[C@@H]2CN(CCc3c([nH]c4ccccc34)[C@@](C(=O)OC)(c3cc4c(cc3OC)N(C)[C@H]3[C@@](O)(C(=O)N5N=C(C)CCCC5=O)[C@H](O)[C@]5(CC)C=CCN6CC[C@]43[C@@H]65)C2)C1", "note": "[4-Desacetyl VLB C-3 N^1-(4,5,6,7-tetrahydro-3-methyl-7-oxo-1H-1,2-diazepin-1-yl)carboxhydrazide sulfate salt]", "values": [
      {"measurement": "IC50", "setting": "[1]", "value": 0.019, "unit": "µg/mL"}
    ]},
    {"smiles": "CC[C@]1(O)C[C@@H]2CN(CCc3c([nH]c4ccccc34)[C@@](C(=O)OC)(c3cc4c(cc3OC)N(C)[C@H]3[C@@](O)(C(=O)NNC(C)CCC(=O)O)[C@H](O)[C@]5(CC)C=CCN6CC[C@]43[C@@H]65)C2)C1", "note": "(some centres unmarked) [4-Desacetyl VLB C-3 N^2-(3-carboxy-1-methylpropyl)carboxhydrazide]", "values": [
      {"measurement": "pKa", "setting": "pKa (66% DMF); first value listed", "value": 5.3},
      {"measurement": "pKa", "setting": "pKa (66% DMF); second value listed", "value": 6.9},
      {"measurement": "pKa", "setting": "pKa (66% DMF); third value listed", "value": 7.9}
    ]},
    {"smiles": "CC[C@]1(O)C[C@@H]2CN(CCc3c([nH]c4ccccc34)[C@@](C(=O)OC)(c3cc4c(cc3OC)N(C)[C@H]3[C@@](O)(C(=O)NN=C(C)CCCC(=O)O)[C@H](O)[C@]5(CC)C=CCN6CC[C@]43[C@@H]65)C2)C1", "note": "[4-Desacetyl VLB C-3 N^2-(4-carboxy-1-methylbutylidene)carboxhydrazide]", "values": [
      {"measurement": "pKa", "setting": "pKa (66% DMF); first value listed", "value": 5.1},
      {"measurement": "pKa", "setting": "pKa (66% DMF); second value listed", "value": 6.6},
      {"measurement": "pKa", "setting": "pKa (66% DMF); third value listed", "value": 7.7}
    ]},
    {"smiles": "CC[C@]1(O)C[C@@H]2CN(CCc3c([nH]c4ccccc34)[C@@](C(=O)OC)(c3cc4c(cc3OC)N(C)[C@H]3[C@@](O)(C(=O)NN=C(C)CCCCC(=O)O)[C@H](O)[C@]5(CC)C=CCN6CC[C@]43[C@@H]65)C2)C1", "note": "[4-Desacetyl VLB C-3 N^2-(5-carboxy-1-methylpentylidene)carboxhydrazide]", "values": [
      {"measurement": "pKa", "setting": "pKa (66% DMF); first value listed", "value": 5.3},
      {"measurement": "pKa", "setting": "pKa (66% DMF); second value listed", "value": 7},
      {"measurement": "pKa", "setting": "pKa (66% DMF); third value listed", "value": 8.1}
    ]},
    {"smiles": "CC[C@]1(O)C[C@@H]2CN(CCc3c([nH]c4ccccc34)[C@@](C(=O)OC)(c3cc4c(cc3OC)N(C)[C@H]3[C@@](O)(C(=O)NN5C(=O)CCCCC5C)[C@H](O)[C@]5(CC)C=CCN6CC[C@]43[C@@H]65)C2)C1", "note": "(some centres unmarked) [4-Desacetyl VLB C-3 N^2-(hexahydro-2-methyl-7-oxo-1H-azepin-1-yl)carboxhydrazide sulfate salt]", "values": [
      {"measurement": "IC50", "setting": "[1]", "value": 0.0056, "unit": "µg/mL"},
      {"measurement": "water solubility of the salt", "setting": "[2]", "value": "not completely soluble"}
    ]},
    {"smiles": "CC[C@]1(O)C[C@@H]2CN(CCc3c([nH]c4ccccc34)[C@@](C(=O)OC)(c3cc4c(cc3OC)N(C)[C@H]3[C@@](O)(C(=O)NN)[C@H](O)[C@]5(CC)C=CCN6CC[C@]43[C@@H]65)C2)C1", "note": "[4-Desacetyl VLB C-3 carboxhydrazide]", "values": [
      {"measurement": "activity against Ridgeway osteogenic sarcoma", "setting": "[3]", "value": "active"},
      {"measurement": "activity against Gardner lymphosarcoma", "setting": "Gardner lymphosarcoma", "value": "active"},
      {"measurement": "activity against P1534(J) leukemia", "setting": "P1534(J) leukemia", "value": "active"}
    ]},
    {"smiles": "CCC1(O)CN2CCc3c([nH]c4ccccc34)C(C(=O)OC)(c3cc4c(cc3OC)N(C)C3C(O)(C(=O)OC)CC5(CC)C=CCN6CCC43C65)CC(C2)C1O", "note": "(centres unmarked) [4-desacetoxy-3'-hydroxyvinblastine]", "values": [
      {"measurement": "activity in the treatment of experimental malignancies in animals", "setting": "[4]", "value": "active"}
    ]},
    {"smiles": "CC[C@]1(O)C[C@@H]2CN(CCc3c([nH]c4ccccc34)[C@@](C(=O)OC)(c3cc4c(cc3OC)N(C)[C@@H]3[C@]45CCN4CC=C[C@@](CC)(C[C@]3(O)C(=O)OC)[C@H]45)C2)C1", "note": "[4-desacetoxyvinblastine]", "values": [
      {"measurement": "activity in the treatment of experimental malignancies in animals", "setting": "[4]", "value": "active"}
    ]},
    {"smiles": "CC[C@]1(O)C[C@@H]2CN(CCc3c([nH]c4ccccc34)[C@@](C(=O)OC)(c3cc4c(cc3OC)N(C)[C@H]3[C@@](O)(C(=O)OC)[C@H](OC(C)=O)[C@]5(CC)C=CCN6CC[C@]43[C@@H]65)C2)C1", "note": "[VLB, vincaleukoblastine]", "values": [
      {"measurement": "activity in the treatment of experimental malignancies in animals", "setting": "[4]", "value": "active"}
    ]},
    {"smiles": "CCC1CC2CN(CCc3c([nH]c4ccccc34)C(C(=O)OC)(c3cc4c(cc3OC)N(C)C3C(O)(C(=O)OC)C(OC(C)=O)C5(CC)C=CCN6CCC43C65)C2)C1", "note": "(centres unmarked) [deoxy VLB \"A\"]", "values": [
      {"measurement": "activity in the treatment of experimental malignancies in animals", "setting": "[4]", "value": "active"}
    ]},
    {"smiles": "CCC1(O)CN2CCc3c([nH]c4ccccc34)C(C(=O)OC)(c3cc4c(cc3OC)N(C)C3C(O)(C(=O)OC)C(OC(C)=O)C5(CC)C=CCN6CCC43C65)CC(O)(C2)C1", "note": "(centres unmarked) [leurocolombine]", "values": [
      {"measurement": "activity in the treatment of experimental malignancies in animals", "setting": "[4]", "value": "active"}
    ]},
    {"smiles": "CC[C@]12CN3CCc4c([nH]c5ccccc45)[C@@](C(=O)OC)(c4cc5c(cc4OC)N(C=O)[C@H]4[C@@](O)(C(=O)OC)[C@H](OC(C)=O)[C@]6(CC)C=CCN7CC[C@]54[C@@H]76)C[C@@H](C3)[C@H]1O2", "note": "[leuroformine]", "values": [
      {"measurement": "activity in the treatment of experimental malignancies in animals", "setting": "[4]", "value": "active"}
    ]},
    {"smiles": "CC[C@@]1(O)C[C@@H]2CN(CCc3c([nH]c4ccccc34)[C@@](C(=O)OC)(c3cc4c(cc3OC)N(C)[C@H]3[C@@](O)(C(=O)OC)[C@H](OC(C)=O)[C@]5(CC)C=CCN6CC[C@]43[C@@H]65)C2)C1", "note": "[leurosidine]", "values": [
      {"measurement": "activity in the treatment of experimental malignancies in animals", "setting": "[4]", "value": "active"}
    ]},
    {"smiles": "CC[C@]12CN3CCc4c([nH]c5ccccc45)[C@@](C(=O)OC)(c4cc5c(cc4OC)N(C)[C@H]4[C@@](O)(C(=O)OC)[C@H](OC(C)=O)[C@]6(CC)C=CCN7CC[C@]54[C@@H]76)C[C@H](C3)[C@H]1O2", "note": "[leurosine]", "values": [
      {"measurement": "activity in the treatment of experimental malignancies in animals", "setting": "[4]", "value": "active"}
    ]},
    {"smiles": "CCC1(O)CN2CCc3c([nH]c4ccccc34)C(C(=O)OC)(c3cc4c(cc3OC)N(C)C3C(O)(C(=O)OC)C(OC(C)=O)C5(CC)C=CCN6CCC43C65)CC(C2)C1O", "note": "(centres unmarked) [vincadioline]", "values": [
      {"measurement": "activity in the treatment of experimental malignancies in animals", "setting": "[4]", "value": "active"}
    ]},
    {"smiles": "CC[C@]1(O)C[C@H]2CN(CCc3c([nH]c4ccccc34)[C@@](C(=O)OC)(c3cc4c(cc3OC)N(C=O)[C@H]3[C@@](O)(C(=O)OC)[C@H](OC(C)=O)[C@]5(CC)C=CCN6CC[C@]43[C@@H]65)C2)C1", "note": "[vincristine]", "values": [
      {"measurement": "activity in the treatment of experimental malignancies in animals", "setting": "[4]", "value": "active"}
    ]},
    {"smiles": "CC[C@]1(O)C[C@@H]2CN(CCc3c([nH]c4ccccc34)[C@@](C(=O)OC)(c3cc4c(cc3OC)N(C)[C@H]3[C@@](O)(C(N)=O)[C@H](O)[C@]5(CC)C=CCN6CC[C@]43[C@@H]65)C2)C1", "note": "[vindesine, 4-desacetyl VLB C-3 carboxamide]", "values": [
      {"measurement": "neurotoxicity compared with vincristine", "setting": "[5]", "value": "less neurotoxicity than does vincristine"},
      {"measurement": "effectiveness against vincristine-resistant leukemias", "setting": "[6]", "value": "apparently effective"}
    ]}
  ]
}
